# In patent US20240217968A1, “PHARMACEUTICAL COMPOUND” (DUKE STREET BIO LIMITED, priority 2021, published 2024):
# Experiments:
# [1] = target: T1, recombinant human Flag-tagged PARP7 (amino acids 456-657) (Homo sapiens, UniProt Q7Z3E1); assay: PARP7 biochemical DELFIA assay (auto-MARylation); conditions: DELFIA readout, IC50 class
# T1 construct: recombinant human Flag-tagged PARP7 (amino acids 456-657)
# T1 sequence (Q7Z3E1 456-657): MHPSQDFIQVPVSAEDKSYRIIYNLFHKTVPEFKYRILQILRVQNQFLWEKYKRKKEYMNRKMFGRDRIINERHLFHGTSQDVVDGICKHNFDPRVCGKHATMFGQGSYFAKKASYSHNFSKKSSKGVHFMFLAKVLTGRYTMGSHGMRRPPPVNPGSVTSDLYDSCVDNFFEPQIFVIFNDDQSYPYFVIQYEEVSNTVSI
# In short: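 Flag-PARP7 (456-657), 12.5-37.5 nM stock, captured on anti-FLAG wells, preincubated 30 min with compound, then auto-MARylated with biotin-NAD+ (15 μM stock) in HEPES pH 7.5/NaCl/DTT/BSA/Tween for 2-3 h at room temperature. NAD+ quench; Eu-streptavidin DELFIA read, Ex337/Em620 nm.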
# [2] = test system: CT26 colorectal cancer cells; assay: Induction of IFNβ in cancer cell supernatants (mouse IFNβ ELISA), CT26; type: cell-based, murine; conditions: 10 μM compound 177 alone or in combination with chemotherapeutic agents, 24 hours, FIG. 1
# Description: (§1) Selected compounds were also tested for their ability to induce type I interferon (interferon β, IFNβ) production in cancer cells as a cell-based measure of PARP7 inhibition and its effects on stimulating the STING pathway signalling. […] Such data highlight the therapeutic utility of combining PARP7 inhibitors with chemotherapy or other agents that can induce aberrant cytosolic nucleic acids in order to further enhance an anti-tumour immune response.
# (§2) CT26 and MC38 cells were seeded in 96-well microplates each at a density of 30,000 cells per well. Following overnight incubation, cells were treated with either DMSO, 10 μM compound 177, or various chemotherapeutic agents (final DMSO concentration of 0.2% v/v). Cells were also treated with 10 μM compound 177 in combination with various chemotherapeutic agents. After 24 hours, IFNβ was measured from cell supernatants using a sandwich enzyme linked immunosorbent assay (ELISA) assay kit (PBL Assay Sciences, catalogue number 42410-2) according to manufacturer's instructions.
# [3] = test system: MC38 colorectal cancer cells; assay: Induction of IFNβ in cancer cell supernatants (mouse IFNβ ELISA), MC38; type: cell-based, murine; conditions: 10 μM compound 177 alone or in combination with chemotherapeutic agents, 24 hours, FIG. 1
# Description: as §1, §2
# [4] = test system: cancer cell lines with high baseline expression of interferon stimulated genes; conditions: cited from earlier work
# [5] = test system: type I interferon responses; conditions: both in vitro and in vivo; cited from earlier work
# [6] = test system: tumour; conditions: animal models; cited from earlier work
SMILES,IC50 [1],further results
"CC(COCCC(=O)N1CCN(c2ncc(C(F)(F)F)cn2)CC1)n1nc(C(F)(F)F)c2c(=O)[nH]ncc21 (single isomer, unassigned) [Compound 177, 1-(1-(3-oxo-3-(4-(5-(trifluoromethyl)pyrimidin-2-yl)piperazin-1-yl)propoxy)propan-2-yl)-3-(trifluoromethyl)-1,5-dihydro-4H-pyrazolo[3,4-d]pyridazin-4-one]",≤ 100 nM,induction of IFNβ in cell supernatants [2]: induction of IFNβ; induction of IFNβ in cell supernatants [3]: induction of IFNβ
CC(CCOCC(=O)N1CCN(c2ncc(Cl)cn2)CC1)n1nc(C(F)(F)F)c2c(=O)[nH]ncc21 (stereo not shown) [Compound 452],≤ 100 nM,–
CC(CCOCC(=O)N1CCN(c2ncc(Cl)cn2)CC1)n1nc(C(F)(F)F)c2c(=O)[nH]ncc21 (stereo not shown) [Compound 453],≤ 100 nM,–
CC(CCOCC(=O)N1CCN(c2ncc(C(F)(F)F)cn2)CC1)n1cc(C(F)(F)F)c2c(=O)[nH]ncc21 (stereo not shown) [Compound 454],≤ 100 nM,–
CC(COCC(=O)NC1CCN(c2ncc(C(F)(F)F)cn2)CC1)n1cc(C(F)(F)F)c2c(=O)[nH]ncc21 (stereo not shown) [Compound 458],≤ 100 nM,–
CC(COCC(=O)N(C)C1CCN(c2ncc(C(F)(F)F)cn2)CC1)n1cc(C(F)(F)F)c2c(=O)[nH]ncc21 (stereo not shown) [Compound 463],≤ 100 nM,–
CC(COCCC(=O)N1CCN(c2ncc(C#N)cn2)CC1)n1cc(C(F)(F)F)c2c(=O)[nH]ncc21 (stereo not shown) [Compound 465],≤ 100 nM,–
"Cc1cc(=O)n(CCOCCC(=O)N2CCN(c3ncc(C(F)(F)F)cn3)CC2)c2cn[nH]c(=O)c12 [Compound 470, 4-methyl-1-(2-(3-oxo-3-(4-(5-(trifluoromethyl)pyrimidin-2-yl)piperazin-1-yl)propoxy)ethyl)pyrido[2,3-d]pyridazine-2,5(1H,6H)-dione]",≤ 100 nM,–
O=C(CCOCCn1nc(C(F)(F)F)c2c(=O)[nH]ncc21)N1CCN(c2cc(C(F)(F)F)[nH]n2)CC1 [Compound 471],≤ 100 nM,–
Cc1c(C(F)(F)F)c2c(=O)[nH]ncc2n1C(C)COCCC(=O)N1CCN(c2ncc(C(F)(F)F)cn2)CC1 (stereo not shown) [Compound 474],≤ 100 nM,–
Cc1c(C(F)(F)F)c2c(=O)[nH]ncc2n1C(C)COCCC(=O)N1CCN(c2ncc(C(F)(F)F)cn2)CC1 (stereo not shown) [Compound 475],≤ 100 nM,–
O=C(c1cccc(Cn2cc(C(F)(F)F)c3c(=O)[nH]ncc32)c1)N1CCN(c2ncc(C(F)(F)F)cn2)CC1 [Compound 478],≤ 100 nM,–
CC(COCCC(=O)N1CCN(c2ncc(C(C)(F)F)cn2)CC1)n1cc(C(F)(F)F)c2c(=O)[nH]ncc21 (stereo not shown) [Compound 481],≤ 100 nM,–
CC(COCCC(=O)N1CCN(c2ccc(C(C)(F)F)cn2)CC1)n1cc(C(F)(F)F)c2c(=O)[nH]ncc21 (stereo not shown) [Compound 483],≤ 100 nM,–
N#Cc1cnc(N2CCN(C(=O)CCOCCn3cc(C(F)(F)F)c4c(=O)[nH]ncc43)CC2)s1 [Compound 487],≤ 100 nM,–
O=C(CCOCCn1nc(C(F)(F)F)c2c(=O)[nH]ncc21)N1CCN(c2ncc(C(F)(F)F)[nH]2)CC1 [Compound 488],≤ 100 nM,–
CC(COCCC(=O)N1CCN(c2cc(C(F)(F)F)[nH]n2)CC1)n1nc(C(F)(F)F)c2c(=O)[nH]ncc21 (stereo not shown) [Compound 489],≤ 100 nM,–
O=C(OCC1CC1Cn1nc(C(F)(F)F)c2c(=O)[nH]ncc21)N1CCN(c2ncc(C(F)(F)F)cn2)CC1 (stereo not shown) [Compound 492],≤ 100 nM,–
O=C(OCC1CC1Cn1nc(C(F)(F)F)c2c(=O)[nH]ncc21)N1CCN(c2ncc(C(F)(F)F)cn2)CC1 (stereo not shown) [Compound 493],≤ 100 nM,–
N#Cc1cnc(N2CCN(C(=O)CCOCCn3nc(C(F)(F)F)c4c(=O)[nH]ncc43)CC2)s1 [Compound 502],≤ 100 nM,–
C[C@@H](COCCC(=O)N1CCN(c2ncc(C(F)(F)F)cn2)CC1)Nc1cn[nH]c(=O)c1C(F)(F)F [RBN-2397],–,inhibition of proliferation [4]: potently inhibited proliferation; type I interferon responses [5]: restored type I interferon responses; tumour regression and specific anti-tumour immunity [6]: tumour regression
